Here are results for 7 compounds from US20060223708A1, “Substituted N-[pyrimidin-2-ylmethyl]carboxamides and their use as herbicides and plant growth regulators” (Bayer CropScience GmbH, priority 2005, published 2006).

For assay [1], the system named is Lolium multiflorum. Description: Pre-emergence effect on weeds. Type of assay: in vivo. Conditions: dosage 1000 g of a.i./ha, scored visually after 3 to 4 weeks. From the text: (§1) 1. Pre-Emergence Effect on Weeds
(§2) Seeds of monocotyledonous and dicotyledonous weed plants are placed into sandy loam soil in cardboard pots and covered with soil. The compounds of the invention, formulated as wettable powders or emulsion concentrates, are then applied to the surface of the soil cover in the form of aqueous suspensions or emulsions at an application rate of 600 to 800 l of water/ha (converted), in various dosages. After the treatment, the pots are placed in a greenhouse and kept under good growth conditions for the weeds. After the test plants have emerged, the damage to the plants or the negative effect on the emergence was scored visually after a test period of 3 to 4 weeks by comparison with untreated controls. Here, the compounds according to the invention have excellent activity against a broad spectrum of economically important monocotyledonous and dicotyledonous harmful plants, see Tables A to G.

Assay [2] concerns Amaranthus retroflexus. Description: Pre-emergence effect on weeds. In kind it is in vivo. Conditions: dosage 1000 g of a.i./ha, scored visually after 3 to 4 weeks.
Excerpt: as §1, §2

Assay [3] has as its system Setaria viridis. Description: Pre-emergence effect on weeds. In kind it is in vivo. Conditions: dosage 1000 g of a.i./ha, scored visually after 3 to 4 weeks.
Excerpt: as §1, §2

The test system of assay [4] is Stellaria media. Nature of the assay: Pre-emergence effect on weeds. Type of assay: in vivo. Conditions: dosage 1000 g of a.i./ha, scored visually after 3 to 4 weeks.
Excerpt: as §1, §2

In assay [5] the test system is Amaranthus retroflexus. Description: Herbicidal post-emergence effect on harmful plants. Type of assay: in vivo. Particulars: dosage 1000 g of a.i./ha, rated after 3 to 4 weeks. Here is the method:
(§3) 2. Herbicidal Post-Emergence Effect on Harmful Plants
(§4) Seeds of monocotyledonous and dicotyledonous harmful plants are placed in sandy loam soil in cardboard pots, covered with soil and cultivated in a greenhouse under good growth conditions. Two to three weeks after sowing, the test plants are treated at the three-leaf stage. The compounds according to the invention, formulated in the form of wettable powders or emulsion concentrates, are sprayed onto the surface of the green parts of the plants at an application rate of 600 to 800 l of water/ha (converted), in various dosages. After the test plants have remained in the greenhouse under optimum growth conditions for 3 to 4 weeks, the effect of the compounds is rated. Here, the compounds according to the invention have excellent activity against a broad spectrum of economically important monocotyledonous and dicotyledonous harmful plants, see Tables H to J.

The test system of assay [6] is Setaria viridis. Nature of the assay: Herbicidal post-emergence effect on harmful plants. Particulars: dosage 1000 g of a.i./ha, rated after 3 to 4 weeks. Type of assay: in vivo. Here is the method: as §3, §4
Assay [7] relates to Cyperus iria. Description: Herbicidal post-emergence effect on harmful plants. Type of assay: in vivo. Conditions: dosage 1000 g of a.i./ha, rated after 3 to 4 weeks. Here is the method: as §3, §4
In assay [8] the test system is Echinochloa crus galli. Nature of the assay: Herbicidal post-emergence effect on harmful plants. Type of assay: in vivo. Conditions: dosage 1000 g of a.i./ha, rated after 3 to 4 weeks. Here is the method:
as §3, §4

Assay [9] can be described thus: Pre-emergence effect on weeds. Type of assay: in vivo, Sinapis arvensis. Conditions: dosage 1000 g of a.i./ha, scored visually after 3 to 4 weeks.
Excerpt: as §1, §2

Assay [10] in a line: Pre-emergence effect on weeds. In kind it is in vivo, Avena fatua. Conditions: dosage 1000 g of a.i./ha, scored visually after 3 to 4 weeks.
Excerpt: as §1, §2

For assay [11], the system named is Lolium multiflorum. Nature of the assay: Herbicidal post-emergence effect on harmful plants. Particulars: dosage 1000 g of a.i./ha, rated after 3 to 4 weeks. Type of assay: in vivo. The procedure:
as §3, §4

`Cc1cc(Oc2cccc(C(F)(F)F)c2)nc(CNC(=O)C2CC2)n1` [Compound 1-206, N-[(4-methyl-6-{(3-trifluoromethyl)phenoxy}pyrimidin-2-yl)methyl]cyclopropanecarboxamide]: the “Herbicidal effect LOLMU” value in [1] amounted to 100%. Moreover, the “Herbicidal effect AMARE” value in assay [2] worked out at 100%. The “Herbicidal effect SETVI” value in [3] came to 100%. Further, the “Herbicidal effect STEME” value in [4] was 100%.
On to `Cc1cc(Oc2cccc(C(F)(F)F)c2)nc(CNC(=O)C2CCC2)n1` [Compound 1-505], for which the “Herbicidal effect LOLMU” value in [1] stood at 100%. The “Herbicidal effect AMARE” value in assay [2] was 100%. Further, the “Herbicidal effect SETVI” value in [3] was found to be 100%. The “Herbicidal effect STEME” value in assay [4] is given as 100%.
For `Cc1cc(Oc2csc(C(F)(F)F)c2)nc(CNC(=O)C2CC2)n1` [Compound 2-205], the “Herbicidal effect AMARE” value in assay [5] is 90%; in [2], 100%. The “Herbicidal effect SETVI” value turned out to be 90% in [6] and 100% in [3]. Besides, the “Herbicidal effect CYPIR” value in assay [7] amounted to 90%. In addition, the “Herbicidal effect ECHCG” value in assay [8] was found to be 90%. Moreover, the “Herbicidal effect STEME” value in assay [4] stood at 100%. The “Herbicidal effect SINAL” value in assay [9] is reported as 90%.
Take `CCc1cc(Oc2csc(C(F)(F)F)c2)nc(CNC(=O)C2CC2)n1` [Compound 2-304]: the “Herbicidal effect AMARE” value in assay [2] amounted to 100%. In addition, the “Herbicidal effect SETVI” value in [3] was 100%. In assay [4], the “Herbicidal effect STEME” value is 100%. Besides, in assay [9], the “Herbicidal effect SINAL” value came to 100%.
With `CCc1cc(Oc2ccnc(C(F)(F)F)c2)nc(CNC(=O)C2CC2)n1` [Compound 3-306, N-[(4-ethyl-6-{[2-(trifluoromethyl)pyridin-4-yl]oxy}pyrimidin-2-yl)methyl]cyclopropanecarboxamide], the “Herbicidal effect AVESA” value in assay [10] is recorded as 100%. For the same compound, the “Herbicidal effect LOLMU” value in assay [11] stood at 90%. The “Herbicidal effect AMARE” value stood at 90% in assay [5] and 100% in [2]. Also, the “Herbicidal effect CYPIR” value in assay [7] stood at 100%. The “Herbicidal effect ECHCG” value in [8] was found to be 90%. For the same compound, in [3], the “Herbicidal effect SETVI” value worked out at 100%. Moreover, the “Herbicidal effect SINAL” value in assay [9] worked out at 100%.
Consider `Cc1cc(Oc2cc(C(F)(F)F)nn2C)nc(CNC(=O)C2CC2)n1` [Compound 5-206], for which the “Herbicidal effect LOLMU” value is 90% in [11] and 100% in [1]. In assay [5], the “Herbicidal effect AMARE” value came to 90%. Further, the “Herbicidal effect CYPIR” value in [7] was 100%. For the same compound, the “Herbicidal effect ECHCG” value in assay [8] is recorded as 100%. Further, in assay [3], the “Herbicidal effect SETVI” value was 100%. Moreover, the “Herbicidal effect STEME” value in assay [4] was 100%. In assay [9], the “Herbicidal effect SINAL” value was 100%.
For the compound `CCc1cc(Oc2cc(C(F)(F)F)nn2C)nc(CNC(=O)C(F)(F)F)n1` [Compound 5-319], the “Herbicidal effect LOLMU” value in [1] is given as 100%. In addition, in assay [3], the “Herbicidal effect SETVI” value is 100%. Moreover, the “Herbicidal effect STEME” value in assay [4] came to 100%. Besides, the “Herbicidal effect SINAL” value in [9] came out at 100%.
